Experimental data published in patent publication US9637490B2, “Antifungal 5,6-dihydro-4-[(difluoroethyl)phenyl]-4H-pyrrolo[1,2-α][1,4]benzodiazepine and 4-(difluoroethyl)phenyl-6H-pyrrolo[1,2-α][1,4]benzodiazepine derivatives” (Janssen Pharmaceutica NV, priority 2010, dated 2017).
pIC50: −log10 of the molar value.

What was measured:
[1] = system: Sporothrix schenkii B62482; test: Antifungal activity in vitro (resazurin susceptibility screen), Inf. A; format: cell-based; settings: Sporothrix, B62482, Sporothrix schenkii B62482; 27 °C, 4 days, resa time 24 hours
Procedure, shortened: (§1)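 Each isolate, diluted 1/1000 from cryostock to give 10^3 cfu/well, is exposed to serially diluted compound (max 64 μM) in RPMI-1640 supplemented with glutamine and glucose, MOPS-buffered at pH 7.0. Plates incubate 24 h at 37° C (yeasts) up to ≥1 week at 27° C (dermatophytes), then resazurin fluorescence is scored.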

[2] = system: Candida parapsilosis B66126; test: Antifungal activity in vitro (resazurin susceptibility screen), Inf. D; format: cell-based; settings: Lodderomyces parapsilosis, B66126, Candida parapsilosis B66126; 37 °C, 24 hours, resa time 4 hours
Procedure, shortened: as §1

[3] = system: Trichophyton mentagrophytes B70554; test: Antifungal activity in vitro (resazurin susceptibility screen), Inf. G; format: cell-based; settings: Trichophyton mentagrophytes, B70554, Trichophyton mentagrophytes B70554; 27 °C, 7 days, resa time 24 hours
Procedure, shortened: as §1

[4] = system: Scedosporium prolificans IHEM21157; test: Antifungal activity in vitro (resazurin susceptibility screen), Inf. I; format: cell-based; settings: Lomentospora prolificans, 37 °C, 48 hours, resa time 17 hours
Procedure, shortened: as §1

[5] = system: Mucor circinelloides IHEM21105; test: Antifungal activity in vitro (resazurin susceptibility screen), Inf. L; format: cell-based; settings: 27 °C, 48 hours, resa time 17 hours
Procedure, shortened: as §1

[6] = system: Microsporum canis (strain B68128); test: Test D.4.1: activity against M. canis in guinea-pigs after oral treatment for 7 consecutive days; format: in vivo; set-up: key to semi-quantitative lesion score (mean): lesion score 0–3.5 by severity and size of lesion
Procedure, shortened: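 Female Duncan-Hartley guinea pigs, scarified depilated dorsum inoculated with 10^6 cfu M. canis spores in honey-water. Compounds in methocel 0.5%/Tween 80 vehicle given by oral gavage once daily for 7 days, starting ~2 h pre-infection; itraconazole reference. Lesions scored semi-quantitatively (0–3.5) on days 3–20 post-infection; mean scores.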

## CC(F)(F)c1ccc(C2=NCc3c(Cl)cccc3-n3cccc32)cc1 [Compound 4, 7-chloro-4-[4-(1,1-difluoroethyl)phenyl]-6H-pyrrolo[1,2-a][1,4]benzodiazepine]
[1]
  pIC50: 4.92
[2]
  pIC50: 5.51
[3]
  pIC50: 6.05
[4]
  pIC50: 6.83
[5]
  pIC50: < 4.19
[6]; oral 5 mg/kg once daily for 7 days, 3 DPI
  semi-quantitative lesion score (mean): 0
[6]; oral 5 mg/kg once daily for 7 days, 5 DPI
  semi-quantitative lesion score (mean): 0.67
[6]; oral 5 mg/kg once daily for 7 days, 7 DPI
  semi-quantitative lesion score (mean): 1.50
[6]; oral 5 mg/kg once daily for 7 days, 10 DPI
  semi-quantitative lesion score (mean): 2.00
[6]; oral 5 mg/kg once daily for 7 days, 12 DPI
  semi-quantitative lesion score (mean): 2.17
[6]; oral 5 mg/kg once daily for 7 days, 14 DPI
  semi-quantitative lesion score (mean): 1.83
[6]; oral 5 mg/kg once daily for 7 days, 17 DPI
  semi-quantitative lesion score (mean): 1.33
[6]; oral 5 mg/kg once daily for 7 days, 20 DPI
  semi-quantitative lesion score (mean): 1.17
[6]; oral 10 mg/kg once daily for 7 days
  activity compared with the terbinafine group (G2, 10 mg/kg): comparable to G2
[6]; oral 10 mg/kg once daily for 7 days, 3 DPI
  semi-quantitative lesion score (mean): 0
[6]; oral 10 mg/kg once daily for 7 days, 5 DPI
  semi-quantitative lesion score (mean): 0
[6]; oral 10 mg/kg once daily for 7 days, 7 DPI
  semi-quantitative lesion score (mean): 0.33
[6]; oral 10 mg/kg once daily for 7 days, 10 DPI
  semi-quantitative lesion score (mean): 1.00
[6]; oral 10 mg/kg once daily for 7 days, 12 DPI
  semi-quantitative lesion score (mean): 1.50
[6]; oral 10 mg/kg once daily for 7 days, 14 DPI
  semi-quantitative lesion score (mean): 1.50
[6]; oral 10 mg/kg once daily for 7 days, 17 DPI
  semi-quantitative lesion score (mean): 0.50
[6]; oral 10 mg/kg once daily for 7 days, 20 DPI
  semi-quantitative lesion score (mean): 0.33
[6]; oral 40 mg/kg once daily for 7 days
  activity compared with the terbinafine group (G2, 10 mg/kg): remarkably more active than the terbinafine group
[6]; oral 40 mg/kg once daily for 7 days, 3 DPI
  semi-quantitative lesion score (mean): 0
[6]; oral 40 mg/kg once daily for 7 days, 5 DPI
  semi-quantitative lesion score (mean): 0.17
[6]; oral 40 mg/kg once daily for 7 days, 7 DPI
  semi-quantitative lesion score (mean): 0.17
[6]; oral 40 mg/kg once daily for 7 days, 10 DPI
  semi-quantitative lesion score (mean): 0.17
[6]; oral 40 mg/kg once daily for 7 days, 12 DPI
  semi-quantitative lesion score (mean): 0.17
[6]; oral 40 mg/kg once daily for 7 days, 14 DPI
  semi-quantitative lesion score (mean): 0
[6]; oral 40 mg/kg once daily for 7 days, 17 DPI
  semi-quantitative lesion score (mean): 0.17
[6]; oral 40 mg/kg once daily for 7 days, 20 DPI
  semi-quantitative lesion score (mean): 0.17
